Assay type in all cases: cell-based, human
Common to all, as to conditions: average of three experiments, concentration range 0.2 nM to 20 μM; for GI50 / LC50: Homo sapiens; for GI50: read-out: GI50 (concentration that inhibits 50% growth); for LC50: read-out: LC50 (concentration that kills 50% of the cells)

The subject of assay [1] is SK-MEL-5. Put plainly: Cytotoxicity, CellTiter-Glo Luminescent Cell Viability Assay, SK-MEL-5. As to the method: (§1) The cytotoxicities of compounds 28-a, 28-b, and 29-a were evaluated against the human cancer cell lines HeLa, SK-MEL-5, and SK-MEL-28. The cytotoxicity evaluations were performed, over a concentration range of 0.2 nM to 20 μM, using the CellTiter-Glo™ Luminescent Cell Viability Assay, a product of Promega Corporation (Madison, Wis. USA), according to the protocol detailed in Promega's Technical Bulletin No. 288. Each value is the average value obtained from three experiments. GI50 is the concentration that inhibits 50% growth; TGI is the concentration that inhibits 100% growth; and LC50 is the concentration that kills 50% of the cells.

In assay [2] the test system is SK-MEL-28. Put plainly: Cytotoxicity, CellTiter-Glo Luminescent Cell Viability Assay, SK-MEL-28. On the procedure:
as §1

The subject of assay [3] is HeLa. Put plainly: Cytotoxicity, CellTiter-Glo Luminescent Cell Viability Assay, HeLa. As to the method:
as §1

Turning to `C=C(C)CC(OC)[C@H](O)C(=O)N[C@@H](OC)[C@@H]1C[C@@H](O)C(C)(C)[C@@H](C[C@H](O)C(C)C2Cc3c(C)c(O)cc(O)c3C(=O)O2)O1` (stereo partly drawn) [Compound 28-a, psymberin], in assay [1], the GI50 was found to be 0.3 nM, the LC50 is 1.3 nM and the “TGI (concentration that inhibits 100% growth)” value came out at 0.7 nM. In addition, in assay [2], the GI50 amounted to 0.23 nM, the LC50 was 1.2 nM and the “TGI (concentration that inhibits 100% growth)” value stood at 0.7 nM. Moreover, in assay [3], the GI50 came to 0.23 nM, the LC50 was determined as 1.6 nM and the “TGI (concentration that inhibits 100% growth)” value came out at 0.90 nM.

Turning to `C=C(C)C[C@H](OC)[C@H](O)C(=O)N[C@H](OC)[C@@H]1C[C@@H](O)C(C)(C)C(CC(O)[C@@H](C)C2Cc3c(C)c(O)cc(O)c3C(=O)O2)O1` (stereo partly drawn) [Compound 28-b], the GI50 in assay [1] was found to be 300 nM; in assay [2], 110 nM; in assay [3], 80 nM. The LC50 in assay [1] was 1100 nM; in assay [2], 900 nM; in assay [3] it was 900 nM. Also, the “TGI (concentration that inhibits 100% growth)” value in assay [1] turned out to be 700 nM; in assay [2] it was 400 nM; in assay [3], 200 nM.

For the molecule `C=C(C)C[C@@H](OC)[C@H](O)C(=O)N[C@@H](OC)[C@@H]1C[C@@H](O)C(C)(C)C(CC(O)[C@@H](C)C2Cc3c(C)c(O)cc(O)c3C(=O)O2)O1` (stereo partly drawn) [Compound 29-a], in assay [1], the GI50 is 300 nM, the LC50 stood at 1700 nM and the “TGI (concentration that inhibits 100% growth)” value is 800 nM. Further, in assay [2], the GI50 turned out to be 200 nM, the LC50 was 1100 nM and the “TGI (concentration that inhibits 100% growth)” value turned out to be 550 nM. For the same molecule, in assay [3], the GI50 worked out at 60 nM, the LC50 worked out at 900 nM and the “TGI (concentration that inhibits 100% growth)” value amounted to 200 nM.
